Reference: patent US9809623B2, “α4β7 peptide monomer and dimer antagonists” (Protagonist Therapeutics, Inc., priority 2014, dated 2017)
Read-outs that look alike come from different tables or passages of the source. Numbered stars: 1 amine (or outer) side, 2 acyl side, 3 side chain; on linkers, the order of the positions; unused ones are H or OH. Bridge positions count the residues as written; N and C are the ends. Square brackets hold non-standard residues; d marks the D form. Peptide text beside a SMILES is read from it. I, II: the chains in the order shown. X2 = O=C(CCOCCOCCOCCOCCOCCOCCOCCOCCOCCOCCOCCOCCOCCOCCOCCOCCOCCOCCOCCOCCOCCOCCOCCOCCOCCC(=O)[*:2])[*:1]; Phe(4-COOH) = N[C@@H](Cc1ccc(C(=O)O)cc1)C(=O)O; Phe(4-tBu) = CC(C)(C)c1ccc(C[C@H](N)C(=O)O)cc1; 2Nal = N[C@@H](Cc1ccc2ccccc2c1)C(=O)O; Diglycolyl = O=C(COCC(=O)[*:2])[*:1]; NMeR = CN[C@@H](CCCNC(=N)N)C(=O)O; β3hE = N[C@@H](CCC(=O)O)CC(=O)O; Pen = CC(C)(S)[C@H](N)C(=O)O

How the values were obtained:
[1] = target: T1, α4β1 (Homo sapiens, UniProt P05556+P13612, DEL729-798); experiment: α4β1-VCAM Competition ELISA; assay type: binding
T1 construct: purchased R&D Systems 5668-A4
In short: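 Recombinant α4β1 (60 nM final) competed with serially diluted peptides (top final 100 μM) for VCAM-1 Fc coated at 400 ng/well, in Tris pH 7.6 with 1 mM MnCl2 or MgCl2, for 2 h at 37 °C. Bound integrin was detected with anti-CD49d 9F10 plus HRP anti-mouse IgG, using TMB read at 450 nm.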

[2] = target: α4β7 (Homo sapiens, UniProt P13612+P26010); experiment: α4β7-MAdCAM Cell Adhesion Assay (RPMI 8866 human cells); assay type: cell-based; parameters: host or cells: RPMI 8866 human B lymphoblastoid cells
In short: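 Washed RPMI 8866 cells (200,000/well) in DMEM with 0.1% BSA, 10 mM HEPES pH 7, 1 mM MnCl2 adhered to rh MAdCAM-1/Fc-coated wells with serially diluted peptides, 30-45 min at 37 °C. After three washes, bound cells quantified by MTT, A570, cell-free background subtracted for dose response.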

[3] = target: T2, rh integrin α4β7 (Homo sapiens, UniProt P13612+P26010); experiment: α4β7-MAdCAM Competition ELISA; assay type: binding
T2 construct: purchased R&D Systems 5397-A30
In short: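 Recombinant human α4β7 was captured on nickel plates at 800 ng/well. Peptide in 3-fold serial dilution (final top 10 μM) competed with MAdCAM-1 (final 10 nM) for 1 h at room temperature in 50 mM Tris pH 7.6, 150 mM NaCl, 1 mM MnCl2 or MgCl2. Bound MAdCAM-1 was detected with anti-human IgG1-HRP/TMB at A450.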

[4] = Table 4-B, read-out: ELISA_α4β1 IC50
[5] = Table 4-B, read-out: Cell Adhesion α4β7 IC50
[6] = Table 4-B, read-out: ELISA α4β7 IC50
[7] = Table 3-B, Selectivity (α4β1), range classes, read-out: α4β1 ELISA IC50
[8] = Table 3-B, Potency (α4β7), range classes, read-out: α4β7 cell (Hu) IC50
[9] = Table 3-B, Potency (α4β7), range classes, read-out: α4β7 ELISA IC50

Sequence of α4β7 (P13612 34-1032): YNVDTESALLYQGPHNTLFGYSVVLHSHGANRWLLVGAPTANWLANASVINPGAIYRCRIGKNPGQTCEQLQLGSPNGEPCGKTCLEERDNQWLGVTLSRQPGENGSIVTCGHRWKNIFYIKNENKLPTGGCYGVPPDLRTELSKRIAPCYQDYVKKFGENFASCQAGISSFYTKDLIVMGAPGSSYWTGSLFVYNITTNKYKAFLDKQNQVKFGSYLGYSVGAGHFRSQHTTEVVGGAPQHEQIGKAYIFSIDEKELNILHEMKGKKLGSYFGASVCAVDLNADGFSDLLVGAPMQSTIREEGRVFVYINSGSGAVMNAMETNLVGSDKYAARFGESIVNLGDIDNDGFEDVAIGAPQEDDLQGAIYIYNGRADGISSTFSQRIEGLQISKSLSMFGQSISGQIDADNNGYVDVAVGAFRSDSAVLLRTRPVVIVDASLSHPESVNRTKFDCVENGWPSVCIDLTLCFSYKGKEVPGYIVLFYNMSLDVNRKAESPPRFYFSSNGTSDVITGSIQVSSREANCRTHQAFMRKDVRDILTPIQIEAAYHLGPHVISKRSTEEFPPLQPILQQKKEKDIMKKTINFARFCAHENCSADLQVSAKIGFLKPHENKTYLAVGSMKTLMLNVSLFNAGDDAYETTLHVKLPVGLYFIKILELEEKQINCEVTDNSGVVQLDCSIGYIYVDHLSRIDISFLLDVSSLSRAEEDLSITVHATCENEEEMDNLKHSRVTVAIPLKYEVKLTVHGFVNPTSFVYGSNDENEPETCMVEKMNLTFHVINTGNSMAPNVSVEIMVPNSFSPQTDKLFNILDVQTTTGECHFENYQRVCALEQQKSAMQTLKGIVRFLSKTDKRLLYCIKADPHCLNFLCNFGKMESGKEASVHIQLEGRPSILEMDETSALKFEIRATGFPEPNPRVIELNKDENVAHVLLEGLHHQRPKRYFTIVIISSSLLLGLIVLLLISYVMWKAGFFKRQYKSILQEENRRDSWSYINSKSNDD
Sequence of α4β7 (P26010 20-798): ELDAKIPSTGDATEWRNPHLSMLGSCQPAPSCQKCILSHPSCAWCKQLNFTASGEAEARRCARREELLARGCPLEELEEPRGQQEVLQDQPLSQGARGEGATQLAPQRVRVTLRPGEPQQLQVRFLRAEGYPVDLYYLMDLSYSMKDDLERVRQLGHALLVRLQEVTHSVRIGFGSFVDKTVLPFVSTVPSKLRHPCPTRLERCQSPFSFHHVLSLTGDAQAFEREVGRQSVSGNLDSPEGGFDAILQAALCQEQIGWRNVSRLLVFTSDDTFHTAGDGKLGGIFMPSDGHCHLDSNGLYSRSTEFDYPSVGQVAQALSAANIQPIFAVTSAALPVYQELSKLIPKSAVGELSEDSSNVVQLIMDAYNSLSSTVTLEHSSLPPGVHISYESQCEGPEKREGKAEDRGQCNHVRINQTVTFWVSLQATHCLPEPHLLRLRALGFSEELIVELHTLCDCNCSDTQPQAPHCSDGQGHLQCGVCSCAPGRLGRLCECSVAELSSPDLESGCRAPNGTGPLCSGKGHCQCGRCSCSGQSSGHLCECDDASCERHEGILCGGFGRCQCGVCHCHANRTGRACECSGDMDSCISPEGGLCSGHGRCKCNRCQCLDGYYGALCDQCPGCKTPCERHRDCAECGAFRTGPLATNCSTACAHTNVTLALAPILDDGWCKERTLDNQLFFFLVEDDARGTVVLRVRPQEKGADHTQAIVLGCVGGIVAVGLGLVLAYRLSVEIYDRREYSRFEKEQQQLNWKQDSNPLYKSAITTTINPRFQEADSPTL
T2 sequence (P13612 34-977 limits assumed): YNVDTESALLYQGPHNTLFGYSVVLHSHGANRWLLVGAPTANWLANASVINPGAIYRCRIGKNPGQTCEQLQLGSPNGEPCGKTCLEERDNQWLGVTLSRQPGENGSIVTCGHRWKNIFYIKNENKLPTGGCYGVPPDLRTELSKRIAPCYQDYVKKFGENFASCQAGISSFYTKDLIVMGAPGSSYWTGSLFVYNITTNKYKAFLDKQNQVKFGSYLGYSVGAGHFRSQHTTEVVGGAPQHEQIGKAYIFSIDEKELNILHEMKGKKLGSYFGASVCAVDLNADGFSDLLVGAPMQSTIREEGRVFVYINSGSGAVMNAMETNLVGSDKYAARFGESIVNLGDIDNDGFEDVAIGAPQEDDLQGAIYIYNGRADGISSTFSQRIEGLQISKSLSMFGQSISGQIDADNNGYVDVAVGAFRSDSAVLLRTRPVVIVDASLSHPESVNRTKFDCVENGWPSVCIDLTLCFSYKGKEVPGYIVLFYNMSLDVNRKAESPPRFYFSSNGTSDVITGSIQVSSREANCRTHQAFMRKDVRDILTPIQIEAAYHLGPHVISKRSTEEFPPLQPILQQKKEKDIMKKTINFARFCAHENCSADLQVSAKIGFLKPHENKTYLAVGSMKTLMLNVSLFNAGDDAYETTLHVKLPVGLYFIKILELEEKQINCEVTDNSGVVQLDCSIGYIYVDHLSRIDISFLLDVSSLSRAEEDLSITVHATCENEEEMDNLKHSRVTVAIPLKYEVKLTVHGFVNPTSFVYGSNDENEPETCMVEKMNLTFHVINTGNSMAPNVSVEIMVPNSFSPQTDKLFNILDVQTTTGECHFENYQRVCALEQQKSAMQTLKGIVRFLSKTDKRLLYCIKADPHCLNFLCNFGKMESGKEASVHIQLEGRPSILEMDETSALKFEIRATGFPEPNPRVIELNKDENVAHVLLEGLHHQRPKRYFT
T2 sequence (P26010 20-723 limits assumed): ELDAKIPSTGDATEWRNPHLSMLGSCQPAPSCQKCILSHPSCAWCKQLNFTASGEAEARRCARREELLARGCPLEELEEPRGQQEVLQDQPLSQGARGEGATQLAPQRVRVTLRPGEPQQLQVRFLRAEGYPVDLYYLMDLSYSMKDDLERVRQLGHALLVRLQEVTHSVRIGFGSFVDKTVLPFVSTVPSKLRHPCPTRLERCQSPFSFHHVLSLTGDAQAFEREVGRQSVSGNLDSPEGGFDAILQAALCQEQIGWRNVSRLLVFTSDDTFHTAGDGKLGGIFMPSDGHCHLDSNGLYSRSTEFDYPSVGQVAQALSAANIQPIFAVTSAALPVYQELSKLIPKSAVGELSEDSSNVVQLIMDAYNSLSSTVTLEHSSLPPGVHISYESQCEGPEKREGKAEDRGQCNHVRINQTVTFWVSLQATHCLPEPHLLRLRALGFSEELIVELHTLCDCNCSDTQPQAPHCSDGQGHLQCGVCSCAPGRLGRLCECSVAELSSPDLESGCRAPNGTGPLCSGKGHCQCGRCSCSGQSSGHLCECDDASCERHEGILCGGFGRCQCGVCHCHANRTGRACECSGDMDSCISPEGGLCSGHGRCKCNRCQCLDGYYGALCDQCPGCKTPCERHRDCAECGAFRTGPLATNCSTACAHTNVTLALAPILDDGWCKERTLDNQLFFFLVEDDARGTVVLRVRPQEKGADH
T1 sequence (P13612 34-977 limits assumed, stated change not applied): as the sequence (P13612 34-977 limits assumed) above
T1 sequence (P05556 21-728 limits assumed, stated change not applied): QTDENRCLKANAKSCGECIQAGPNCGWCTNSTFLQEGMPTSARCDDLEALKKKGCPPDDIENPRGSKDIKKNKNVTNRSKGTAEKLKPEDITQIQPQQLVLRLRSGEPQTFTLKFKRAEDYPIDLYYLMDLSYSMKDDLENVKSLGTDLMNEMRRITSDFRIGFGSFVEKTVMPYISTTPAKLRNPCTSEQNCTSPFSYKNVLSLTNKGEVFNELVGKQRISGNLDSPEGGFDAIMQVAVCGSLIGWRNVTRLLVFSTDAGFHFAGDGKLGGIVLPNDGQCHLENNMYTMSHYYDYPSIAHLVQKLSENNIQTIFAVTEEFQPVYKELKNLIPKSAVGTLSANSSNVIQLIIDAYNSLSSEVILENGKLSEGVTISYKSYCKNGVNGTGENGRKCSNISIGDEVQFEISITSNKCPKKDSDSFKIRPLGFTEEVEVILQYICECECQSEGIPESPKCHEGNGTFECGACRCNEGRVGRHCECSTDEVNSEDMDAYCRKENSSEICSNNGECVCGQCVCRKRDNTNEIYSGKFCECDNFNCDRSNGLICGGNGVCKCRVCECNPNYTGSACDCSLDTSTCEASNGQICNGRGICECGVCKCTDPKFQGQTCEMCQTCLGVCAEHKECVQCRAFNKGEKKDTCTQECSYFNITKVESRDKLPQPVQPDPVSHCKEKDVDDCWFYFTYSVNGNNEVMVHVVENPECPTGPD

## CC(=O)N[C@H]1CSSC[C@@H](C(=O)NCC(=O)N[C@@H](CCC(=O)O)C(=O)N[C@@H](CCCCNC(=O)CCOCCOCCOCCOCCOCCOCCOCCOCCOCCOCCOCCOCCOCCOCCOCCOCCOCCOCCOCCOCCOCCOCCOCCOCCOCCC(=O)NCCCC[C@H](NC(=O)[C@H](CCC(=O)O)NC(=O)CNC(=O)[C@@H]2CSSC[C@H](NC(C)=O)C(=O)N[C@@H](CCCNC(=N)N)C(=O)N[C@@H](CO)C(=O)N[C@@H](CC(=O)O)C(=O)N[C@@H]([C@@H](C)O)C(=O)N[C@@H](CC(C)C)C(=O)N2)C(N)=O)C(N)=O)NC(=O)[C@H](CC(C)C)NC(=O)[C@H]([C@@H](C)O)NC(=O)[C@H](CC(=O)O)NC(=O)[C@H](CO)NC(=O)[C@H](CCCNC(=N)N)NC1=O [compound 197, (Ac-C-R-S-D-T-L-C-G-E-K-NH2)2-PEG25] (I: Ac-CRSDTLCGEK-NH2 / II: Ac-CRSDTLCGEK-NH2; disulfide I:1-I:7, II:1-II:7; linker I:10-II:10 via X2)
[1]; [4]
  IC50: 0.964 µM
[2]; [5]
  IC50: 0.301 µM
[3]; [6]
  IC50: 0.036 µM

## CC(=O)N[C@@H]1C(=O)N(C)[C@@H](CCCNC(=N)N)C(=O)N[C@@H](CO)C(=O)N[C@@H](CC(=O)O)C(=O)N[C@@H]([C@@H](C)O)C(=O)N[C@@H](CC(C)C)C(=O)N[C@H](C(=O)N[C@@H](Cc2ccc(C(C)(C)C)cc2)C(=O)N[C@@H](CCC(=O)O)CC(=O)O)C(C)(C)SSC1(C)C [compound 152] (Ac-[Pen][NMeR]SDTL[Pen][Phe(4-tBu)][β3hE]-OH; disulfide 1-7)
[1]; [7]
  IC50: 0.1 to 0.5 µM
[2]; [8]
  IC50: < 0.01 µM
[3]; [9]
  IC50: < 0.01 µM

## CC(=O)N[C@@H]1C(=O)N(C)[C@@H](CCCNC(=N)N)C(=O)N[C@@H](CO)C(=O)N[C@@H](CC(=O)O)C(=O)N[C@@H]([C@@H](C)O)C(=O)N[C@@H](CC(C)C)C(=O)N[C@H](C(=O)N[C@@H](Cc2c[nH]c3ccccc23)C(=O)N[C@H](CCC(=O)O)C(=O)N[C@H](CCCCNC(=O)COCC(=O)NCCCC[C@@H](NC(=O)[C@@H](CCC(=O)O)NC(=O)[C@H](Cc2c[nH]c3ccccc23)NC(=O)[C@H]2NC(=O)[C@H](CC(C)C)NC(=O)[C@H]([C@@H](C)O)NC(=O)[C@H](CC(=O)O)NC(=O)[C@H](CO)NC(=O)[C@H](CCCNC(=N)N)N(C)C(=O)[C@@H](NC(C)=O)C(C)(C)SSC2(C)C)C(N)=O)C(N)=O)C(C)(C)SSC1(C)C [compound 68] (I: Ac-[Pen][NMeR]SDTL[Pen]W[dE][dK]-NH2 / II: Ac-[Pen][NMeR]SDTL[Pen]W[dE][dK]-NH2; disulfide I:1-I:7, II:1-II:7; linker I:10-II:10 via Diglycolyl)
[1]; [7]
  IC50: 0.5 to 1 µM
[2]; [8]
  IC50: 0.025 to 0.05 µM
[3]; [9]
  IC50: < 0.01 µM

## CC(=O)N[C@@H]1C(=O)N(C)[C@@H](CCCNC(=N)N)C(=O)N[C@@H](CO)C(=O)N[C@@H](CC(=O)O)C(=O)N[C@@H]([C@@H](C)O)C(=O)N[C@@H](CC(C)C)C(=O)N[C@H](C(=O)N[C@@H](Cc2ccc(C(=O)O)cc2)C(=O)N[C@@H](CCC(=O)O)CC(=O)N[C@H](CCCCNC(=O)COCC(=O)NCCCC[C@@H](NC(=O)C[C@H](CCC(=O)O)NC(=O)[C@H](Cc2ccc(C(=O)O)cc2)NC(=O)[C@H]2NC(=O)[C@H](CC(C)C)NC(=O)[C@H]([C@@H](C)O)NC(=O)[C@H](CC(=O)O)NC(=O)[C@H](CO)NC(=O)[C@H](CCCNC(=N)N)N(C)C(=O)[C@@H](NC(C)=O)C(C)(C)SSC2(C)C)C(N)=O)C(N)=O)C(C)(C)SSC1(C)C [compound 130] (I: Ac-[Pen][NMeR]SDTL[Pen][Phe(4-COOH)][β3hE][dK]-NH2 / II: Ac-[Pen][NMeR]SDTL[Pen][Phe(4-COOH)][β3hE][dK]-NH2; disulfide I:1-I:7, II:1-II:7; linker I:10-II:10 via Diglycolyl)
[1]; [7]
  IC50: 0.1 to 0.5 µM
[2]; [8]
  IC50: < 0.01 µM
[3]; [9]
  IC50: < 0.01 µM

## CC(=O)N[C@@H]1C(=O)N(C)[C@@H](CCCNC(=N)N)C(=O)N[C@@H](CO)C(=O)N[C@@H](CC(=O)O)C(=O)N[C@@H]([C@@H](C)O)C(=O)N[C@@H](CC(C)C)C(=O)N[C@H](C(=O)N[C@@H](Cc2ccc3ccccc3c2)C(=O)N[C@@H](CCC(=O)O)C(=O)N[C@H](CCCCNC(=O)COCC(=O)NCCCC[C@@H](NC(=O)[C@H](CCC(=O)O)NC(=O)[C@H](Cc2ccc3ccccc3c2)NC(=O)[C@H]2NC(=O)[C@H](CC(C)C)NC(=O)[C@H]([C@@H](C)O)NC(=O)[C@H](CC(=O)O)NC(=O)[C@H](CO)NC(=O)[C@H](CCCNC(=N)N)N(C)C(=O)[C@@H](NC(C)=O)C(C)(C)SSC2(C)C)C(N)=O)C(N)=O)C(C)(C)SSC1(C)C [compound 212, (Ac-Pen-N-Me-R-S-D-T-L-Pen-2-Nal-E-k-NH2)2-DIG] (I: Ac-[Pen][NMeR]SDTL[Pen][2Nal]E[dK]-NH2 / II: Ac-[Pen][NMeR]SDTL[Pen][2Nal]E[dK]-NH2; disulfide I:1-I:7, II:1-II:7 (inferred); linker I:10-II:10 via Diglycolyl (inferred))
[1]; [4]
  IC50: 0.07 µM
[2]; [5]
  IC50: 0.0025 µM
[3]; [6]
  IC50: 0.002 µM

## CC(=O)N[C@@H]1C(=O)N(C)[C@@H](CCCNC(=N)N)C(=O)N[C@@H](CO)C(=O)N[C@@H](CC(=O)O)C(=O)N[C@@H]([C@@H](C)O)C(=O)N[C@@H](CC(C)C)C(=O)N[C@H](C(=O)N[C@@H](Cc2ccc(C(=O)O)cc2)C(=O)N[C@@H](CCC(=O)O)C(=O)N[C@H](CCCCNC(=O)COCC(=O)NCCCC[C@@H](NC(=O)[C@H](CCC(=O)O)NC(=O)[C@H](Cc2ccc(C(=O)O)cc2)NC(=O)[C@H]2NC(=O)[C@H](CC(C)C)NC(=O)[C@H]([C@@H](C)O)NC(=O)[C@H](CC(=O)O)NC(=O)[C@H](CO)NC(=O)[C@H](CCCNC(=N)N)N(C)C(=O)[C@@H](NC(C)=O)C(C)(C)SSC2(C)C)C(N)=O)C(N)=O)C(C)(C)SSC1(C)C [compound 129] (I: Ac-[Pen][NMeR]SDTL[Pen][Phe(4-COOH)]E[dK]-NH2 / II: Ac-[Pen][NMeR]SDTL[Pen][Phe(4-COOH)]E[dK]-NH2; disulfide I:1-I:7, II:1-II:7; linker I:10-II:10 via Diglycolyl)
[1]; [7]
  IC50: 0.1 to 0.5 µM
[2]; [8]
  IC50: < 0.01 µM
[3]; [9]
  IC50: < 0.01 µM

## CC(=O)N[C@H]1CSSC[C@@H](C(=O)NCC(=O)N[C@@H](CCC(=O)O)C(N)=O)NC(=O)[C@H](CC(C)C)NC(=O)[C@H]([C@@H](C)O)NC(=O)[C@H](CC(=O)O)NC(=O)[C@H](CO)NC(=O)[C@H](CCCNC(=N)N)NC1=O [compound 194, Ac-C-R-S-D-T-L-C-G-E-NH2] (Ac-CRSDTLCGE-NH2; disulfide 1-7)
[1]; [4]
  IC50: 2.02 µM
[2]; [5]
  IC50: 0.59 µM
[3]; [6]
  IC50: 0.097 µM

## CC(=O)N[C@@H]1C(=O)N(C)[C@@H](CCCNC(=N)N)C(=O)N[C@@H](CO)C(=O)N[C@@H](CC(=O)O)C(=O)N[C@@H]([C@@H](C)O)C(=O)N[C@@H](CC(C)C)C(=O)N[C@H](C(=O)N[C@@H](Cc2c[nH]c3ccccc23)C(=O)N[C@H](CCC(=O)O)C(=O)N[C@H](CCCCNC(=O)COCC(=O)NCCCC[C@@H](NC(=O)[C@@H](CCC(=O)O)NC(=O)[C@H](Cc2c[nH]c3ccccc23)NC(=O)[C@H]2NC(=O)[C@H](CC(C)C)NC(=O)[C@H]([C@@H](C)O)NC(=O)[C@H](CC(=O)O)NC(=O)[C@H](CO)NC(=O)[C@H](CCCNC(=N)N)N(C)C(=O)[C@@H](NC(C)=O)C(C)(C)SSC2(C)C)C(=O)O)C(=O)O)C(C)(C)SSC1(C)C [compound 216, (Ac-Pen-N-Me-R-S-D-T-L-Pen-W-e-k-OH)2-DIG] (I: Ac-[Pen][NMeR]SDTL[Pen]W[dE][dK]-OH / II: Ac-[Pen][NMeR]SDTL[Pen]W[dE][dK]-OH; disulfide I:1-I:7, II:1-II:7 (inferred); linker I:10-II:10 via Diglycolyl (inferred))
[1]; [4]
  IC50: 0.247 µM
[2]; [5]
  IC50: 0.0042 µM
[3]; [6]
  IC50: 0.0028 µM

## CC(=O)N[C@@H]1C(=O)N(C)[C@@H](CCCNC(=N)N)C(=O)N[C@@H](CO)C(=O)N[C@@H](CC(=O)O)C(=O)N[C@@H]([C@@H](C)O)C(=O)N[C@@H](CC(C)C)C(=O)N[C@H](C(=O)N[C@@H](Cc2c[nH]c3ccccc23)C(=O)N[C@@H](CCC(=O)O)C(=O)N[C@H](CCCCNC(=O)COCC(=O)NCCCC[C@@H](NC(=O)[C@H](CCC(=O)O)NC(=O)[C@H](Cc2c[nH]c3ccccc23)NC(=O)[C@H]2NC(=O)[C@H](CC(C)C)NC(=O)[C@H]([C@@H](C)O)NC(=O)[C@H](CC(=O)O)NC(=O)[C@H](CO)NC(=O)[C@H](CCCNC(=N)N)N(C)C(=O)[C@@H](NC(C)=O)C(C)(C)SSC2(C)C)C(N)=O)C(N)=O)C(C)(C)SSC1(C)C [compound 67] (I: Ac-[Pen][NMeR]SDTL[Pen]WE[dK]-NH2 / II: Ac-[Pen][NMeR]SDTL[Pen]WE[dK]-NH2; disulfide I:1-I:7, II:1-II:7; linker I:10-II:10 via Diglycolyl)
[1]; [7]
  IC50: 0.1 to 0.5 µM
[2]; [8]
  IC50: < 0.01 µM
[3]; [9]
  IC50: < 0.01 µM
